Laboratory results: patent US20050261130A1, “Novel surfactants and formulations” (Monsanto Technology LLC, priority 2000, published 2005)

Columns and labels:
Type in all cases: physicochemical
[1] = Specific gravity (Mettler DA-300 Density/Specific Gravity Meter); details: 20/15.6° C.; 30% a.e. by weight glyphosate monobasic salt solutions
Experimental: Specific gravities are measured using a Mettler DA-300 Density/Specific Gravity Meter.

[2] = Compatibility of surfactant with potassium glyphosate concentrate (no phase separation, 50° C., 1 week); details: 50° C. oven 1 week; for Compatible w/37% a.e. K + glyphosate at 12 wt % loading: 37 wt. % a.e. potassium glyphosate/12 wt. % surfactant; for Compatible w/45% a.e. K + glyphosate at 15% wt loading: 45 wt. % a.e. potassium glyphosate/15 wt. % surfactant
Experimental: For the 31 wt. % a.e. potassium glyphosate/10 wt. % surfactant compositions: 1.550 g of 40 wt. % a.e. aqueous glyphosate potassium salt solution was weighed into a vial. To the same vial, 0.200 g of surfactant was added. Enough deionized water was then added to the contents to bring the total weight to 2.000g. The mixture was stirred for 2 hours at room temperature and checked to see if a solution had been formed. If a solution was present, the test vial was allowed to stand at room temperature overnight. If a solution was still present, the test vial was placed in a 50° C. oven for 1 week. If no phase separation had occurred in one week, the surfactant being tested was considered “compatible.” All of the surfactants identified in Table 4 were compatible at the 31% a.e. potassium/10 wt. % surfactant loading.
For the 37 wt. % a.e. potassium glyphosate/12 wt. % surfactant compositions: 41.1 g of 45 wt. % a.e. aqueous glyphosate potassium salt was weighed to a container. To the same container was added 6.0 g of surfactant and 2.9 g deionized water for a total weight of 50.0 g. The remainder of the protocol is the same as that described for the 31 wt. % samples. The surfactants identified in Table 4 that were compatible at the 37% a.e. potassium/12 wt. % surfactant loading are indicated in Table 5 below.
For the 40 wt. % a.e. potassium glyphosate/10 wt. % surfactant compositions: 1.79 g of 45 wt. % a.e. aqueous glyphosate potassium salt was weighed into a vial. To the same vial was added 0.2 g of surfactant. The remainder of the protocol is the same as that described for the 31 wt. % samples. The surfactants identified in Table 4 that were compatible at the 40% a.e. potassium/10 wt. % surfactant loading are indicated in Table 5 below.
For the 45 wt. % a.e. potassium glyphosate/15 wt. % surfactant compositions: 1.100 g of solid mono potassium glyphosate was weighed into a vial. To the same vial was added 0.300 g surfactant. Enough deionized water was added to the vial to bring the final weight to 2.000 g. The remainder of the protocol is the same as that described for the 31 wt. % samples. The surfactants identified in Table 4 that were compatible at the 45% a.e. potassium/[…] are indicated in Table 5 below.

[3] = Birefringence test for anisotropic aggregates on wax-coated slide; set-up: key: Y is yes; N is no; details: surfactant in IPA glyphosate formulation
Experimental: To determine whether a herbicidal formulation comprising glyphosate or a salt or ester thereof and a surfactant forms anisotropic aggregates on the foliage of a plant comprising the surfactant, the following birefringence testing procedure may be utilized.
First, a wax-coated slide is prepared. A preferred wax for preparing the slide is a blend of carnauba wax and beeswax in a weight/weight ratio of approximately 10:1, respectively. A clear wax mixture is prepared consisting of about 5% carnauba wax and about 0.5% beeswax in isopropanol, and is maintained at a temperature of approximately 82° C. The end of a glass 2.4 cm×7.2 cm microscope slide is immersed perpendicularly in the wax mixture to a depth of approximately one-third of the length of the slide. After about 10 to 15 seconds, the slide is very slowly and steadily withdrawn from the wax mixture and allowed to cool, leaving a wax layer deposited on both faces of the slide.
Visual examination of the slide can give a preliminary indication of the thickness and uniformity of the wax coating. If imperfections are evident the slide is rejected. […] Further evaluation of the acceptability of the wax-coated slide for the test is done by examining the slide under a microscope. The slide is selected for use in the test if, on microscopic examination using a 4.9× objective, the wax coating is uniformly thick and there is uniform density of wax particles across the slide.
The next stage in the procedure is to conduct the test.
The following instrumentation, or equivalent, items are required or useful for the test procedure: • Nikon SMZ-10A stereoscopic microscope equipped for polarized light observation, photomicrography, and video observation and recording. • 3CCD MTI camera. • Diagnostic Instruments 150 IL-PS power supply. • Sony Trinitron color video monitor, model PVM-1353MD. • Mitsubishi time-lapse video cassette recorder, model HS-S5600. • Hewlett Packard Pavillion 7270 computer, with Windows 95 and Image-Pro • Plus version 2.0 electronic imaging program installed. • Hewlett Packard Deskjet 870Cse printer.
For testing, a wax-coated slide, prepared and selected as described above, is positioned on the microscope stage, with the system set to provide transmitted light, both straight and polarized. A 1 microliter drop of the sample to be tested is applied to the wax surface using a thoroughly cleaned 1 microliter Hamilton syringe. This and subsequent operations are followed through the microscope at 4.9× objective. Duplicate or triplicate tests are done for each composition. Numerous tests can be conducted simultaneously on a single slide. Progression of change in the microscopic appearance of the sample is observed through the microscope and recorded at designated time intervals. Useful intervals are 1 minute, 10 minutes, 2 hours and greater than 24 hours after application of the drop to the wax surface. Observations can also be made at intermediate times to capture possible significant transitions occurring at such times.
The temperature of the wax layer tends to increase with prolonged exposure to the microscope light. […] However, in some cases temperature does affect the outcome of the test and in such cases it is preferred to illuminate the sample only for the short periods necessary to make observations, so that the temperature of the wax layer remains close to ambient temperature.
At dark field (polarized light) the wax layer is observed for birefringence, and at light field the character of the drop surface is observed, at each time interval. The following records are preferably made: • birefringence (y/n); • time of initial appearance of birefringence; • character of the birefringence; • appearance of drop surface as composition “dries”; • degree of spread of the drop; • effects of temperature (warming of the slide) if any; • other noticeable changes.

[4] = Compatibility of surfactant with diammonium glyphosate concentrate (no phase separation, 50° C., 1 week); details: 50° C. oven 1 week; for Compatible w/31% a.e. diammonium glyphosate at 10 wt % loading: 31 wt. % a.e. diammonium glyphosate/10 wt. % surfactant; for Compatible w/37% a.e. diammonium glyphosate at 12 wt % loading: 37 wt. % a.e. diammonium glyphosate/12 wt. % surfactant
Experimental: For the 31 wt. % a.e. NH4^+glyphosate/10 wt. % surfactant compositions: • 1.48 g of 41.9 wt % a.e. aqueous glyphosate diammonium (1.7 eq) salt was weighed into a vial. To the same vial was added 0.2 g of surfactant and 0.32 g deionized water. The remainder of the protocol is the same as that described for the 31 wt % potassium glyphosate samples. The surfactants identified in Table 4 that were compatible at the 31% a.e. ammonium/10 wt. % surfactant loading are indicated in Table 5 below.
For the 37 wt. % a.e. NH4^+glyphosate/12 wt. % surfactant compositions: • 1.76 g of 41.9 wt % a.e. aqueous glyphosate diammonium (1.7 eq) salt was weighed into a vial. To the same vial was added […]. The remainder of the protocol is the same as that described for the 31 wt % potassium glyphosate samples. The surfactants identified in Table 4 that were compatible at the 37% a.e. ammonium/12 wt. % surfactant loading are indicated in Table 5 below.

Compound | Compatible w/37% a.e. K + glyphosate at 12 wt % loading [2] | AA (anisotropic aggregate) [3] | Compatible w/31% a.e. diammonium glyphosate at 10 wt % loading [4] | other results
NCCO.O=C(O)CNCP(=O)(O)O [monoethanolammonium (MEA)] | – | – | – | Specific Gravity [1]: 1.2357
CCCCCCCCCCCCCCCCN(C)CCN(C)CCCCCCCCCCCCCCCC | – | Y | – | –
CCCCCCCCCCCCCCCCOCCOCCOCCOCCOCCOCCOCCOCCOCCOCCNCCCN [KKK] | Probably | – | – | Compatible w/45% a.e. K + glyphosate at 15% wt loading [2]: Yes, but minor
CCCCCCCCCCCCNC(CO)(CO)CO [FFF] | – | – | No | Compatible w/37% a.e. diammonium glyphosate at 12 wt % loading [4]: No
CCCCC(CC)COP(=O)(O)O (centres unmarked) [2-ethylhexyl phosphate] | – | N | – | –
CCCCCCCCCCN(C)CCCN(C)CCCCCCCCCC [Gemini 10-3-10] | – | Y | – | –
CCN.O=C(O)CNCP(=O)(O)O | – | – | – | Specific Gravity [1]: 1.1599
CCCCCCCCNC(CO)(CO)CO [EEE] | Yes | – | Yes | Compatible w/45% a.e. K + glyphosate at 15% wt loading [2]: No; Compatible w/37% a.e. diammonium glyphosate at 12 wt % loading [4]: Yes
CCCCCCCCCCN(C)CCN(C)CCCCCCCCCC [Gemini 10-2-10] | – | Y | – | –
CCCCCCCCCCN(C)CCCCN(C)CCCCCCCCCC [Gemini 10-4-10] | – | Y | – | –
C[S+](C)C.O=C(O)CNCP(=O)([O-])O [trimethylsulfonium (TMS)] | – | – | – | Specific Gravity [1]: 1.1904
CN [methylammonium] | – | – | – | Specific Gravity [1]: 1.1667
ammonium | – | – | – | Specific Gravity [1]: 1.1814
CCCCCCCCCCCC[N+](C)(C)C [VVV] | – | – | Yes | Compatible w/37% a.e. diammonium glyphosate at 12 wt % loading [4]: No
CC(C)N.O=C(O)CNCP(=O)(O)O [isopropylammonium (IPA)] | – | – | – | Specific Gravity [1]: 1.1554
CCCCCCCCCCCCCCCCOCCOCCOCCOCCOCCOCCOCCOCCOCCOCCN(C)CCN(C)C [MMM] | Yes | – | Yes | –
CCCCCCCCCCCCOCCOCCOCCOCCN(C)C [HHH] | – | – | No | –
CCCN.O=C(O)CNCP(=O)(O)O | – | – | – | Specific Gravity [1]: 1.1429

The next lines start with results.

Compatible w/37% a.e. K + glyphosate at 12 wt % loading [2] | AA (anisotropic aggregate) [3] | Compatible w/31% a.e. diammonium glyphosate at 10 wt % loading [4] | Compound | other results
Yes | – | – | CN(CCCCCCCCCCCCN(C)CC(O)C(O)C(O)C(O)CO)CC(O)C(O)C(O)C(O)CO (centres unmarked) [Surfactant ZZ, 1,12 methylaminoglucitoldodecane] | Compatible w/45% a.e. K + glyphosate at 15% wt loading [2]: Yes
– | N | – | CCCCCCCCCCN(C)C [drawing 146 w=10] | –
No | – | No | CCCCCCCCCCCCCCCCOCCOCCOCCOCCOCCOCCOCCOCCOCCOCCOCCOCCOCCOCCOCCOCCOCCOCCOCCOCCN(C)CC(O)C(O)C(O)C(O)CO (centres unmarked) [PPP] | Compatible w/37% a.e. diammonium glyphosate at 12 wt % loading [4]: No
– | Y | – | CCCCCCCCCCCCCCCCCC(=O)O [stearic acid] | –
No | – | No | CCCCCCCCCCCCCCCCOCCOCCOCCOCCOCCOCCOCCOCCOCCOCCOCCOCCOCCOCCOCCOCCOCCOCCOCCOCCN(C)CC(O)CO (centres unmarked) [QQQ] | Compatible w/37% a.e. diammonium glyphosate at 12 wt % loading [4]: No
Yes | – | – | CCCCCCCCN(CCCN(CCCCCCCC)CC(O)C(O)C(O)C(O)CO)CC(O)C(O)C(O)C(O)CO (centres unmarked) [Surfactant CCC, 1,8 hexylaminoglucitol octane] | Compatible w/45% a.e. K + glyphosate at 15% wt loading [2]: Yes
No | – | Yes | CCCCCCCCCCCCCCCCCC[N+](C)(C)CC(O)C(O)C(O)C(O)CO (centres unmarked) [YY] | Compatible w/37% a.e. diammonium glyphosate at 12 wt % loading [4]: No
Probably | – | No | CCCCCCCCCCCCCCCCOCCOCCOCCOCCOCCOCCOCCOCCOCCOCCN(C)CC(O)C(O)C(O)C(O)CO (centres unmarked) [OOO] | Compatible w/37% a.e. diammonium glyphosate at 12 wt % loading [4]: Yes
No | – | Yes | CCCCCCCCCCCC[N+](C)(C)CC(O)C(O)C(O)C(O)CO (centres unmarked) [XX] | Compatible w/37% a.e. diammonium glyphosate at 12 wt % loading [4]: No
– | Y | – | CCCCCCCCCCCCOS(=O)(=O)[O-].[Na+] [sodium lauryl sulfate] | –
– | Y | – | CCCCCCCC/C=C\CCCCCCCC(=O)O [oleic acid] | –
– | N | – | CCCCCCCC(=O)O [caprylic acid] | –
Yes | – | Yes | CCCCCCCCCCCCN(C)CC(O)C(O)C(O)C(O)CO (centres unmarked) [RR] | Compatible w/45% a.e. K + glyphosate at 15% wt loading [2]: Yes; Compatible w/37% a.e. diammonium glyphosate at 12 wt % loading [4]: Yes
– | – | No | CCCCCCCCCCCCCCCCCCN(C)CCOCCOCCOCCOCCOCCOCCOC [Surfactant C, α-methyl-ω-(N-methyloctadecylamino)poly(oxy-1,2-ethanediyl)] | –
– | N | – | laureth-3 phosphate | –
– | Y | – | CCCCCCCCCCCCCCCC(=O)O [palmitic acid] | –
